Common to all, as to format: functional
Test [1] has as its system Escherichia coli. Description: In vitro inhibition of protein translation in Escherichia coli.
Test [2] relates to Escherichia coli. Description: In vitro antibacterial activity was determined.
Test [3] is described as follows: Inhibition of L11BD (L11 binding domain) 58-mer methylation of A1067 at 50 uM.
The test system of the next test is Nucleic Acid. The test is described as follows: % Inhibition of rRNA methylation at 50 uM.
Test [4] concerns Escherichia coli. Description: Inhibitory concentration of compound against Escherichia coli in vitro protein translation.

In brackets after ≈: the same amount, converted by molar mass. Some results are limits rather than exact numbers.

In the test with Escherichia coli [1], `CC[C@@H](NC(=O)[C@@H](NC(=O)c1csc(-c2ccccc2)n1)[C@@H](C)O)c1nc(C(=O)NCc2ccc3c(c2)OCO3)cs1` showed an Inhibition of 31%. Besides, in the test with Escherichia coli [2], the MIC95 is greater than 200 µg/mL. The inhibition in test [3] is 28%; with Nucleic Acid it was 13%.
In the same order, the values of `CC(C)[C@@H](NC(=O)[C@@H](NC(=O)c1csc(-c2ccccc2)n1)[C@@H](C)O)c1nc(C(=O)NCc2ccc3c(c2)OCO3)cs1` are 16%, greater than 200 µg/mL, 24% and 20%.
`C[C@H](O)[C@H](NC(=O)c1csc(-c2ccccc2)n1)c1nc(C(=O)N2CCN(CCOCCO)CC2)cs1` registered an MIC95 in the test with Escherichia coli [2] greater than 200 µg/mL. The inhibition in test [3] turned out to be 59%.
As to `CC(C)[C@@H](NC(=O)[C@@H](NC(=O)c1csc(-c2ccccc2)n1)[C@@H](C)O)c1nc(C(=O)NCCCO)cs1`, the Inhibition with Escherichia coli [1] is 48%. For the same compound, the MIC95 in the test with Escherichia coli [2] was greater than 200 µg/mL. Moreover, the inhibition (in test [3]; with Nucleic Acid) was 37% each time.
Consider `C=C(NC(=O)C(=C)NC(=O)c1csc(C2=N[C@@H]3c4csc(n4)[C@H]4NC(=O)c5csc(n5)[C@H]([C@](C)(O)[C@@H](C)O)NC(=O)[C@H]5CSC(=N5)/C(=C/C)NC(=O)[C@H]([C@@H](C)O)NC(=O)c5csc(n5)[C@]3(CC2)NC(=O)[C@H](C)NC(=O)C(=C)NC(=O)[C@H](C)NC(=O)[C@H]([C@@H](C)CC)N[C@@H]2C=Cc3c([C@H](C)O)cc(nc3[C@H]2O)C(=O)O[C@@H]4C)n1)C(N)=O` [THIOSTREPTON], for which, in the test with Escherichia coli [1], the Inhibition is recorded as 98%. For the same compound, the MIC95 with Escherichia coli [2] amounted to 0.015 µg/mL (≈ 0.00901 µM). In the test with Escherichia coli [4], this compound returned an IC50 of 100 nM.
As to `C[C@H](O)[C@@H](NC(=O)[C@@H](NC(=O)c1csc(-c2ccccc2)n1)[C@@H](C)O)c1nc(C(=O)O)cs1`, in the test with Escherichia coli [2], the MIC95 is greater than 200 µg/mL. The inhibition in test [3] was 35%; in the test with Nucleic Acid, 27%.

The values are drawn from ChEMBL document CHEMBL1145726, “Structure-based design of agents targeting the bacterial ribosome” (Bioorg Med Chem Lett, 2003).
